Here are results for 27 molecules from patent publication EP3575287A1, “INHIBITORS OF N-ACYLPHOSPHATIDYLETHANOLAMINE PHOSPHOLIPASE D (NAPE-PLD)” (Universiteit Leiden, priority 2018, dated 2019).

Each structure is given as a SMILES string.

In the assay the target is T1, human NAPE-PLD (Homo sapiens, UniProt Q6IQ20).
T1 construct: Full length human cDNA NAPE-PLD was obtained from Natsuo Ueda; made in house; host or cells: HEK293T cells, transient transfection (pcDNA3.1); membrane fraction used
T1 sequence (Q6IQ20 whole entry): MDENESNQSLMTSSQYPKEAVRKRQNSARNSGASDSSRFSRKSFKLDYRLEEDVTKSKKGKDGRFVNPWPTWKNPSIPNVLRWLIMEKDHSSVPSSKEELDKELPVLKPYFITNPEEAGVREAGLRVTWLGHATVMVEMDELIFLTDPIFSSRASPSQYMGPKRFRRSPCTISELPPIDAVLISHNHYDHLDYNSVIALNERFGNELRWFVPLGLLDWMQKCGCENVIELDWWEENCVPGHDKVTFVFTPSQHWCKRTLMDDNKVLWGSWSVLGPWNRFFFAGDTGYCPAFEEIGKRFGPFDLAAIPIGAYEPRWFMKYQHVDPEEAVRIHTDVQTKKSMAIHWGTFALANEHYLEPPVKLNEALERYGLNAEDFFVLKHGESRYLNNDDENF
As to the kind of experiment: In vitro NAPE-PLD activity assay. Format: biochemical. Conditions: membrane protein fraction of HEK293T cells overexpressing human NAPE-PLD; substrate PED6 1 µM; 30 minutes preincubation at 37 °C. How it is done: Full length human cDNA NAPE-PLD was obtained from Natsuo Ueda^1 and cloned into mammalian expression vector pcDNA3.1, containing a C-terminal Flag-tag and genes for ampicillin and neomycin resistance. All plasmids were grown in XL-10 Z-competent cells and prepped (Maxi Prep, Qiagen). Sequence analysis for the confirmation of the sequences was performed at the Leiden Genome Technology Centre.
HEK293T were cultured at 37 °C and 7% CO2 in DMEM (Sigma Aldrich, D6546) with glutamax, penicillin (100 µg/ml), streptomycin (100 µg/ml) and 10% New Born Calf Serum iron supplemented (Hyclone SH30072.03). Cells were passaged twice a week to appropriate confluence.
24 hours before transfection 10^7 cells are seeded on a 15 cm dish. Two hours before transfection medium is refreshed, low volume. Transfection is performed with PEI in a ratio of 3:1 with human NAPE-PLD or Mock pcDNA3.1 Neo, 20 µg per dish. Medium is refreshed after 24 hours and cells are harvested after 72 hours.
Cell pellets are re-suspended in lysis buffer: 20 mM Hepes, 2 mM DTT, 0.25 M sucrose, 1 mM MgCl2, 2.5 U/ml benzonase and incubated 30 minutes on ice. The cytosolic fraction (supernatant) is separated from the membranes by ultra-centrifugation (32000 rpm for 30 minutes 100,000g). The pellet is resuspended in storage buffer: 20 mM Hepes, 2 mM DTT (membrane fraction). All samples are stored at -80°C. Enzyme concentrations are determined using a Bradford assay.
The NAPE-PLD activity assay is based on a previously reported method with small alterations.^2 The membrane protein fraction from transient overexpression of human NAPE-PLD in HEK293T cells was diluted to 0.4 mg/ml in assay buffer: 50 mM Tris-HCl (pH 7.5), 0.02% Triton X-100, 150 mM NaCl. The substrate PED6 (Invitrogen) 1 mM stock was consecutively diluted in DMSO (10x) and in assay buffer (10x) to make a 10 µM working solution. […] The assay is performed in a dark Greiner 96 wells plate, end volume 100 µl. The compound or DMSO is incubated with membrane protein lysate (final concentration 0.04 mg/ml) for 30 minutes at 37 °C. […] Mock lysate with DMSO is used for background substraction. IC50 curves are generated used Graphpad Prism v6.
Broadly, the IC50 is the concentration that gives 50% inhibition. `CN(CCc1ccccc1)c1nc(C(=O)NC2CC2)cc(N2CCOCC2)n1` [Example 13, N-cyclopropyl-2-(methyl (phenethyl)amino)-6-morpholinopyrimidine-4-carboxamide] gave an IC50 of 3720 nM.
In the case of `O=C(NCC1CC1)c1cc(N2CCOCC2)nc(N2CCN(Cc3ccccc3)C(c3ccccc3)C2)n1` (stereo not drawn) [Example 35, 2-(4-benzyl-3-phenylpiperazin-1-yl)-N-(cyclopropylmethyl)-6-morpholinopyrimidine-4-carboxamide], the IC50 was 1000 nM.
Regarding `COC1CCN(c2cc(C(=O)NCC3CC3)nc(N(C)CCc3ccccc3)n2)C1` (stereo not drawn) [Example 34, N-(cyclopropylmethyl)-6-(3-methoxypyrrolidin-1-yl)-2-(methyl(phenethyl)amino)pyrimidine-4-carboxamide], the IC50 was 708 nM.
Turning to `CN(CCc1ccccc1Cl)c1nc(C(=O)NCC2CC2)cc(N2CCOCC2)n1` [Example 68, 2-((2-chlorophenethyl)(methyl)amino)-N-(cyclopropylmethyl)-6-morpholinopyrimidine-4-carboxamide], inhibition was half-maximal at 977 nM (IC50).
`CC(=O)N1CCN(c2cc(C(=O)NCC3CC3)nc(N(C)CCc3ccccc3)n2)CC1` [Example 12, 6-(4-acetylpiperazin-1-yl)-N-(cyclopropylmethyl)-2-(methyl(phenethyl)amino)pyrimidine-4-carboxamide] had an IC50 of 1200 nM.
In turn, `Cc1ccc(CCN(C)c2nc(C(=O)NCC3CC3)cc(N3CCOCC3)n2)cc1` [Example 69, N-(cyclopropylmethyl)-2-(methyl(4-methylphenethyl)amino)-6-morpholinopyrimidine-4-carboxamide] gave an IC50 of 1820 nM.
`CN(CCc1ccccn1)c1nc(C(=O)NCC2CC2)cc(N2CCOCC2)n1` [Example 84, N-(cyclopropylmethyl)-2-(methyl(2-(pyridin-2-yl)ethyl)amino)-6-morpholinopyrimidine-4-carboxamide] had an IC50 of 12900 nM.
`CN(CCc1ccc(Oc2ccccc2)cc1)c1nc(C(=O)NCC2CC2)cc(N2CCOCC2)n1` [Example 53, N-(cyclopropylmethyl)-2-(methyl(4-phenoxyphenethyl)amino)-6-morpholinopyrimidine-4-carboxamide] gave an IC50 of 3020 nM.
In the case of `O=C(NCC1CC1)c1cc(N2CCOCC2)nc(N2CCCCC2Cc2ccccc2)n1` (stereo not drawn) [Example 54, 2-(2-benzylpiperidin-1-yl)-N-(cyclopropylmethyl)-6-morpholinopyrimidine-4-carboxamide], the IC50 was 741 nM.
In the case of `CN(CCc1ccccc1)c1nc(C(=O)NCC2CC2)cc(N2CCC2)n1` [Example 25, N-(cyclopropylmethyl)-2-(methyl(phenethyl)amino)-6-(azetidin-1-yl)pyrimidine-4-carboxamide] it was 427 nM.
`O=C(NCC1CC1)c1cc(N2CCOCC2)nc(N(CCc2ccccc2)CCc2ccccc2)n1` [Example 62, N-(cyclopropylmethyl)-2-(diphenethylamino)-6-morpholinopyrimidine-4-carboxamide] had an IC50 of 525 nM.
With `CN(CCc1ccccc1)c1nc(C(=O)NCC2CC2)cc(N2CC3(COC3)C2)n1` [Example 26, N-(cyclopropylmethyl)-2-(methyl(phenethyl)amino)-6-(2-oxa-6-azaspiro[3.3]heptan-6-yl)pyrimidine-4-carboxamide], the IC50 is 1660 nM.
The molecule `CN(CCc1ccccc1)c1nc(C(=O)NCC2CC2)cc(N2CCC(c3ccccc3)C2)n1` (stereo not drawn) [Example 29, N-(cyclopropylmethyl)-2-(methyl(phenethyl)amino)-6-(3-phenylpyrrolidin-1-yl)pyrimidine-4-carboxamide] showed an IC50 of 1410 nM.
Molecule `CN(CCc1ccccc1)c1cc(C(=O)NCC2CC2)nc(N2CCOCC2)n1` [Example 55, N-(cyclopropylmethyl)-6-(methyl(phenethyl)amino)-2-morpholinopyrimidine-4-carboxamide] showed an IC50 of 4070 nM.
`CN(CCc1ccccc1)c1nc(Oc2cccnc2)cc(C(=O)NCC2CC2)n1` [Example 1, N-(cyclopropylmethyl)-2-(methyl(phenethyl)amino)-6-(pyridin-3-yloxy)pyrimidine-4-carboxamide]: it took 5250 nM to reach half-maximal inhibition (IC50).
`CN(Cc1ccccc1)c1nc(C(=O)NCC2CC2)cc(N2CCOCC2)n1` [Example 48, 2-(benzyl(methyl)amino)-N-(cyclopropylmethyl)-6-morpholinopyrimidine-4-carboxamide]: the IC50 is 9120 nM.
For the molecule `CNc1cc(C(=O)NCC2CC2)nc(N(C)CCc2ccccc2)n1` [Example 21, N-(cyclopropylmethyl)-2-(methyl(phenethyl)amino)-6-(methylamino)pyrimidine-4-carboxamide], half-maximal inhibition (IC50) was put at 851 nM.
In the case of `CN(C)c1cc(C(=O)NCC2CC2)nc(N(C)CCc2ccccc2)n1` [Example 76, N-(cyclopropylmethyl)-6-(dimethylamino)-2-(methyl(phenethyl)amino)pyrimidine-4-carboxamide] it was 288 nM; in that of `CN(CCc1ccccc1)c1nc(C(=O)NCC2CC2)cc(N2CC[C@@H](O)C2)n1` [Example 38, (R)-N-(cyclopropylmethyl)-6-(3-hydroxypyrrolidin-1-yl)-2-(methyl(phenethyl)amino)pyrimidine-4-carboxamide], 302 nM.
Then `CN(CCc1ccccc1)c1nc(C(=O)NCC2CC2)cc(N2CCCCC2)n1` [Example 3, N-(cyclopropylmethyl)-2-(methyl(phenethyl)amino)-6-(piperidin-1-yl)pyrimidine-4-carboxamide], with 646 nM; and `O=C(NCC1CC1)c1cc(N2CCOCC2)nc(N(CCc2ccccc2)c2ccccc2)n1` [Example 77, N-(cyclopropylmethyl)-6-morpholino-2-(phenethyl(phenyl)amino)pyrimidine-4-carboxamide], with 501 nM; and `CCN(CCc1ccccc1)c1nc(C(=O)NCC2CC2)cc(N2CCOCC2)n1` [Example 72, N-(cyclopropylmethyl)-2-(ethyl(phenethyl)amino)-6-morpholinopyrimidine-4-carboxamide], with 646 nM.
`CC(C)CNC(=O)c1cc(N2CCOCC2)nc(N(C)CCc2ccccc2)n1` [Example 6, N-isobutyl-2-(methyl(phenethyl)amino)-6-morpholinopyrimidine-4-carboxamide] gave an IC50 of 7080 nM.
Then `CN(CCc1ccccc1)c1nc(C(=O)NCC2CC2)cc(N2CCCC(F)(F)C2)n1` [Example 86, N-(cyclopropylmethyl)-6-(3,3-difluoropiperidin-1-yl)-2-(methyl(phenethyl)amino)pyrimidine-4-carboxamide], with 389 nM; and `Cc1ccccc1CCN(C)c1nc(C(=O)NCC2CC2)cc(N2CCOCC2)n1` [Example 78, N-(cyclopropylmethyl)-2-(methyl(2-methylphenethyl)amino)-6-morpholinopyrimidine-4-carboxamide], with 891 nM.
The molecule `CN(CCc1ccccc1)c1cc(C(=O)NCC2CC2)nc(N(C)CCc2ccccc2)n1` [Example 27, N-(cyclopropylmethyl)-2,6-bis(methyl(phenethyl)amino)pyrimidine-4-carboxamide] had an IC50 of 155 nM.
`CCCNC(=O)c1cc(N2CCOCC2)nc(N(C)CCc2ccccc2)n1` [Example 14, N-propyl-2-(methyl (phenethyl)amino)-6-morpholino-pyrimidine-4-carboxamide] showed an IC50 of 1820 nM.
